{"source": "paper PMC10245146", "about": "“CNS4 causes subtype‐specific changes in agonist efficacy and reversal potential of permeant cations in NMDA receptors” (Pharmacology Research & Perspectives, 2023)", "format_in_all_cases": "cell-based", "key": {"[1]": {"molecular_target": "T1, E781A_1/2A mutant receptor (UniProt P35439+Q12879, E781A)", "T1 construct": "expressed in transfected cells; host or cells: Xenopus oocytes (cRNA injection)", "T1 sequence (Q12879 23-1464, other chains not shown)": "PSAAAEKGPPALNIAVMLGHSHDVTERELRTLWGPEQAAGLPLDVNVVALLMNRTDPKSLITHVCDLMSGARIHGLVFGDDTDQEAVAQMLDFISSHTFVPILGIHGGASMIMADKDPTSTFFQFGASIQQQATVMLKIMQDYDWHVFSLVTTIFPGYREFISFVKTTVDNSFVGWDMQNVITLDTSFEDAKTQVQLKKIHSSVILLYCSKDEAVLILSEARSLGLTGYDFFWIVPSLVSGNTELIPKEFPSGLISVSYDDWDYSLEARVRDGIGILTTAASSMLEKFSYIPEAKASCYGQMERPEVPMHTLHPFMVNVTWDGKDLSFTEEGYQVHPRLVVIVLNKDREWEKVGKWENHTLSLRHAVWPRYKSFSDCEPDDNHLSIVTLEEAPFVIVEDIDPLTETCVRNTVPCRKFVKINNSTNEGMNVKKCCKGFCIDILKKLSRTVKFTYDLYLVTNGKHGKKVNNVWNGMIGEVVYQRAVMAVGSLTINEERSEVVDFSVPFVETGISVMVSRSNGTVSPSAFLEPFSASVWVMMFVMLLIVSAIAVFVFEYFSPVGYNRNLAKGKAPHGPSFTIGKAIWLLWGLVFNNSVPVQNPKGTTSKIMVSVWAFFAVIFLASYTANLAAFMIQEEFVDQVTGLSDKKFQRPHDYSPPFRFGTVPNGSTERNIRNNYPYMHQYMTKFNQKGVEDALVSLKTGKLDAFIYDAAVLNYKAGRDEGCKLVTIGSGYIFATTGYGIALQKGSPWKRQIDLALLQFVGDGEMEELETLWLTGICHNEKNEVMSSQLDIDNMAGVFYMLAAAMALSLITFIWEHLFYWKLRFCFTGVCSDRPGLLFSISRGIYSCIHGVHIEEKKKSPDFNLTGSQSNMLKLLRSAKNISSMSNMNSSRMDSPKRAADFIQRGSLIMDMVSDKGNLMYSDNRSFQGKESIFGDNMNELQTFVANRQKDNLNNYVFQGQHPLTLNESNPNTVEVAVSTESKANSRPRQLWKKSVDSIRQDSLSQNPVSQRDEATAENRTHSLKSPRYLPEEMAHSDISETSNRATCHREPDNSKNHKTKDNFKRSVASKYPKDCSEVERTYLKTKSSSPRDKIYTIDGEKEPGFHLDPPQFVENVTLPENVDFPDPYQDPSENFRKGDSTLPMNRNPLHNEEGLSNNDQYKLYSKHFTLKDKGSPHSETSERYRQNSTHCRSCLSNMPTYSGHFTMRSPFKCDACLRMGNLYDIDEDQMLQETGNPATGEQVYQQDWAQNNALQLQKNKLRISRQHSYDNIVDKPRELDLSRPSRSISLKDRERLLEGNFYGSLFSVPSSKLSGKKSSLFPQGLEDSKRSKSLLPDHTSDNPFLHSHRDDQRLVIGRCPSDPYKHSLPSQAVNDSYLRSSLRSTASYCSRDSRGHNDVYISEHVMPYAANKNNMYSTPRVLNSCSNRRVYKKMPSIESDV", "test": "TEVC glutamate dose-response, GluN1 E781A mutant with wild type GluN2A", "design": "Glutamate efficacy: unit not given here", "description": "NMDA receptor constructs: cDNA encoding the NMDA receptor1a subunit (GluN1a) was obtained from Dr. Nakanishi (Kyoto, Japan). cDNA encoding the GluN2B (pci_sepGluN2B), originally developed in the Malinow lab,[33] was purchased from Addgene (cat# 23998), Cambridge, MA. cDNA encoding the GluN2C and GluN2D were purchased from GenScript, New Jersey, USA. Mutated GluN1, 2A and 2B cDNA constructs capable of assembling as GluN1/2A/2B triheteromeric (1/2AB) receptors[34] were obtained from Dr. Paoletti (Laboratoire de Neurobiologie, CNRS). These constructs have been previously tested for 1/2AB receptor activity of GluN1/2A receptor‐selective potentiators.[35] […] Plasmids were linearized with NotI (GluN1a and all five GluN1 mutants) or Avrll (GluN2B), or BstB1 (GluN2C and GluN2D) and transcribed in vitro with T7 (GluN1a, GluN1/2A, GluN2B, GluN2C & GluN2D), and SP6 (GluN1 mutants) RNA polymerase using the mMessage mMachine transcription kits (Invitrogen by Thermo Fisher Scientific).\nElectrophysiological responses were measured using a standard two‐microelectrode voltage‐clamp workstation (Warner Instruments model OC‐725C) designed to provide a fast clamp of large cells. The recording buffer contained 116 mM NaCl, 2 mM KCl, 0.3 mM BaCl2, and 5 mM HEPES, pH 7.4. Response magnitude was determined in Xenopus oocytes expressing different NMDA receptor subunits (GluN1/2A, 1/2B, 1/2C, 1/2D, and 1/2A/2B) by the steady plateau response elicited by bath application of different agonist concentrations. […] All data points were obtained from the steady state currents unless stated otherwise. Dose–response relationships were fit to an appropriate curve‐fitting equation using GraphPad Prism‐7. Non‐linear regression was used to calculate EC50, IC50, and fold change or percentage maximal response. Curves were fit using the following equations as performed in the previous studies, [37]: Y=100/1+10^LogEC50−XorY=Bottom+Top−Bottom/1+10^LogEC50−X . Statistical significance was determined at the overall alpha level 0.05, using appropriate statistical methods as described in all figure captions. […]"}, "GluN1/2D NMDA receptors": {"molecular_target": "T2, GluN1/2D NMDA receptors (UniProt O15399+P35439)", "T2 construct": "host or cells: Xenopus oocytes (cRNA injection)", "T2 sequence (O15399 28-1336, other chains not shown)": "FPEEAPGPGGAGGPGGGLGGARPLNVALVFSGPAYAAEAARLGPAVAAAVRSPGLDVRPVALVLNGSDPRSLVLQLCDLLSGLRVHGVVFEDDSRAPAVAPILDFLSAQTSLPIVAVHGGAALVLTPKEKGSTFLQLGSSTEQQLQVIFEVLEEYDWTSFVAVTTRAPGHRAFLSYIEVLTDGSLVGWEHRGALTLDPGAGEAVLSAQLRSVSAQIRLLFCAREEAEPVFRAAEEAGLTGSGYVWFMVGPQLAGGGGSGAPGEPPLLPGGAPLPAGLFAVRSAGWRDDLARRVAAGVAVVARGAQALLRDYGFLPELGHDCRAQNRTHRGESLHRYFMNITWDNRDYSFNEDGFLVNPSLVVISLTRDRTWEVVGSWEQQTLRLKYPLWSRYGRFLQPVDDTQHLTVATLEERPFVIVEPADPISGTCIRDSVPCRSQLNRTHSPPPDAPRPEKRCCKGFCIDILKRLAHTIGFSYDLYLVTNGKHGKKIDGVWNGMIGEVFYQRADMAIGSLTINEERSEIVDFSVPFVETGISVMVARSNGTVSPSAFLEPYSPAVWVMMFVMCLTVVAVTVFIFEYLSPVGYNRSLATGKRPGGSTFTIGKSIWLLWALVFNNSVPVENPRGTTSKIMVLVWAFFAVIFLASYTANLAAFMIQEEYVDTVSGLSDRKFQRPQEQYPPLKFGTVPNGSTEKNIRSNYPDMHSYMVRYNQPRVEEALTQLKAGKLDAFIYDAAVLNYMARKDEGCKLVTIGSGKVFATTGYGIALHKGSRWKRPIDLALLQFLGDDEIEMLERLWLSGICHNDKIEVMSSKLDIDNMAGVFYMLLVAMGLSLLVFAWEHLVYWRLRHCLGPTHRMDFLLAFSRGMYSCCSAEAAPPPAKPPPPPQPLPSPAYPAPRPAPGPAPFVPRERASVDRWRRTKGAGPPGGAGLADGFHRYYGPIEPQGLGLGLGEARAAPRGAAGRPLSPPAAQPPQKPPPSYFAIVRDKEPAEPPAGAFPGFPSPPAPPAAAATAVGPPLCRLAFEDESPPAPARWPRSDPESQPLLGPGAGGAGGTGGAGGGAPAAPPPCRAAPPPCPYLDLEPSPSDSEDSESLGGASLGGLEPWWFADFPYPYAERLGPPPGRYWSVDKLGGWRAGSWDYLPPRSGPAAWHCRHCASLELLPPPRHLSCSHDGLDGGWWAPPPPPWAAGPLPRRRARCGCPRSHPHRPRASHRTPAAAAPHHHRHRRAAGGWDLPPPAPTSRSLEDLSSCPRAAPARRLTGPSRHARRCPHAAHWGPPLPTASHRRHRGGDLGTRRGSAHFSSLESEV", "test": "Current-voltage (I-V) relationship, Xenopus oocytes expressing 1/2D", "conditions": "for Difference in reversal potential (∆Erev) between W and WO CNS4: 100 μM CNS4; for Reversal potential (Erev): with 100 μM CNS4", "description": "There are two sets of recording solutions used for the I‐V assay: solutions with normal (1) and low (2) Ca^2+ concentrations. The normal Ca^2+ solutions contained (mM): 115 NaCl, 1 KCl, 1.8 CaCl2, 10 HEPES. PH was adjusted to 7.2. Low calcium solutions contained 0.018 mM CaCl2 and other components were the same as normal Ca^2+ solution. To study the effects of CNS4 in the absence of extracellular Na^+, NaCl was replaced with impermeable agent, N‐methyl‐D‐glucamine (NMDG, […]). HCl was used to dissolve the NMDG and to adjust the PH to 7.2. NMDG‐containing solutions are termed Nafree. […] There were four different agonist solutions used for each set of Ca^2+ recordings: (1) Agonist, (2) Agonist+CNS4, (3) Agonist in Nafree solution, (4) Agonist+CNS4 in Nafree solution. Each solution was applied to the oocytes in sequential order and the same order was followed for all I‐V recordings. Low Ca^2+ experiments were carried out in the same way as normal Ca^2+ experiments, except that they had 0.018 mM Ca^2+ in all four agonist and recording solutions. Steady state current responses evoked by these solutions at each voltage step were measured. Reversal potentials (Erev) were obtained from x‐intercept values when y = 0 after fitting the I‐V data using a third order polynomial, non‐linear curve fitting equation Y=B0+B1^*X+B2^*X^2+B3^*X^3 . Erev obtained from each oocyte with different agonists were compared in a pairwise manner. These differences were then averaged. Paired or unpaired student t‐test was performed to compare the data as mentioned in each figure legend.\nFIGURE 6 Effect on CNS4 on agonist induced current directions in 1/2D receptors. Current –Voltage (I‐V) relationship of 1/2D receptors was studied with normal (A) and low (B) CaCl2 containing extracellular solutions. […] Dark and light green circles indicate normal and low CaCl2 experiments, respectively. (C) Comparison of reversal potentials values. Dark and light red squares indicate equivalent I‐V experiments with NMDG (Nafree). Dotted and thick lines denote the absence (empty circles or squares) and presence (filled circles or squares) of 100 μM CNS4, respectively. Traces (Ai&ii, Bi&ii) represent the current response at −90 mv. N = 4 (4) & n = 7(7) for normal & low Ca^2+ assays respectively. Erev obtained from each oocyte with different agonists were compared in a pairwise manner. Paired student t‐test was performed to compare the data presented at Ci. Unpaired student's t‐test was performed to compare the difference in reversal potentials (triangles). *p < .05."}, "GluN1/2B NMDA receptors": {"molecular_target": "T3, GluN1/2B NMDA receptors (Rattus norvegicus, UniProt P35439+Q00960)", "T3 construct": "SEP (super-ecliptic pHluorin; printed only as 'sep' in the plasmid name); host or cells: Xenopus oocytes (cRNA injection)", "T3 sequence (Q00960 27-1482, other chains not shown)": "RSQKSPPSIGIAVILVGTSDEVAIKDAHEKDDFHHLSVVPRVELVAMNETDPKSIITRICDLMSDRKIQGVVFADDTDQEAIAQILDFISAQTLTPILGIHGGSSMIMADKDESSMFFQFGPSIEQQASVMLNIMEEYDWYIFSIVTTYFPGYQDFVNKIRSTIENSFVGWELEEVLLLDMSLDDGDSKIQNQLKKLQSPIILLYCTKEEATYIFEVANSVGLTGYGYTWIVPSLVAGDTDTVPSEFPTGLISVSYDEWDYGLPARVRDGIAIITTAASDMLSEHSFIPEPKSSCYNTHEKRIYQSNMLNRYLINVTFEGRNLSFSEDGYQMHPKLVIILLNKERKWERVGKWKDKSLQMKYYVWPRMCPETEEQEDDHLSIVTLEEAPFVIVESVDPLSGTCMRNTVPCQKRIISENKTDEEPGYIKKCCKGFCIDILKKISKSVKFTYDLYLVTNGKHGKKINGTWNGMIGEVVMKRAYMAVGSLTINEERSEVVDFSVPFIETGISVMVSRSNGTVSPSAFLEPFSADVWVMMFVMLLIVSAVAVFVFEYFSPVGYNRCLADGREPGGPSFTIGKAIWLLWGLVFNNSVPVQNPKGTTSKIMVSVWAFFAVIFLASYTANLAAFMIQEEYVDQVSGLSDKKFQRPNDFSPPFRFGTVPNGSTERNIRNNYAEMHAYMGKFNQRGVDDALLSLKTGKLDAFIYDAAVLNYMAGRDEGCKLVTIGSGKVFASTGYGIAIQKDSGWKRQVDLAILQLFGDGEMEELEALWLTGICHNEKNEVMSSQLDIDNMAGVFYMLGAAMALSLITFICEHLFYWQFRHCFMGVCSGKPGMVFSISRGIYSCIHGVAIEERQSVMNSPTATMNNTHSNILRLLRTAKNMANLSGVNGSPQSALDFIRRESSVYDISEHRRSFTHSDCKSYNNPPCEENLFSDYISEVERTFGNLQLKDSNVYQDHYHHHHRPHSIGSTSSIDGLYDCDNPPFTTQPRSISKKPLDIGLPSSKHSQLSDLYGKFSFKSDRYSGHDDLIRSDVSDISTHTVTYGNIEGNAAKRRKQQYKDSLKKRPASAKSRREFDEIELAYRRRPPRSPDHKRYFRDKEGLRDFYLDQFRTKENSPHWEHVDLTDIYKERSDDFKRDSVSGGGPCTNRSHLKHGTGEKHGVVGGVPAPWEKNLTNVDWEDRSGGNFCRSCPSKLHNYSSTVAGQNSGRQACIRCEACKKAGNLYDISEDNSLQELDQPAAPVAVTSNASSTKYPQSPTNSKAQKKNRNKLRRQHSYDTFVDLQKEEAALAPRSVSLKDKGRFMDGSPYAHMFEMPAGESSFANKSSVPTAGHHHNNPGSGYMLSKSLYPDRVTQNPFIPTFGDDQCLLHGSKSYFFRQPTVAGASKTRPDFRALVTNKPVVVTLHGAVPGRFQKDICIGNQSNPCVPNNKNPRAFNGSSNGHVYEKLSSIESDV", "test": "TEVC agonist dose-response, Xenopus oocytes expressing 1/2B", "conditions": "with 30 μM CNS4", "description": "NMDA receptor constructs: cDNA encoding the NMDA receptor1a subunit (GluN1a) was obtained from Dr. Nakanishi (Kyoto, Japan). cDNA encoding the GluN2B (pci_sepGluN2B), originally developed in the Malinow lab,[33] was purchased from Addgene (cat# 23998), Cambridge, MA. cDNA encoding the GluN2C and GluN2D were purchased from GenScript, New Jersey, USA. Mutated GluN1, 2A and 2B cDNA constructs capable of assembling as GluN1/2A/2B triheteromeric (1/2AB) receptors[34] were obtained from Dr. Paoletti (Laboratoire de Neurobiologie, CNRS). These constructs have been previously tested for 1/2AB receptor activity of GluN1/2A receptor‐selective potentiators.[35] […]\nElectrophysiological responses were measured using a standard two‐microelectrode voltage‐clamp workstation (Warner Instruments model OC‐725C) designed to provide a fast clamp of large cells. […] Response magnitude was determined in Xenopus oocytes expressing different NMDA receptor subunits (GluN1/2A, 1/2B, 1/2C, 1/2D, and 1/2A/2B) by the steady plateau response elicited by bath application of different agonist concentrations. […] Statistical significance was determined at the overall alpha level 0.05, using appropriate statistical methods as described in all figure captions. […]"}}, "data": [{"smiles": "O=C(NC(=S)N1CCCCC1c1cccnc1)c1ccc(F)cc1", "note": "(stereo not drawn) [CNS4]", "values": [{"measurement": "Glutamate efficacy, E781A mutant compared to wild type 1/2A", "setting": "[1]; absence of glycine, presence of CNS4, 100 μM glutamate", "result": "~ 34 fold"}, {"measurement": "100 μM glutamate induced relative current amplitude (glutamate efficacy)", "setting": "[1]; absence of glycine, presence of CNS4, n = 6 (3), p = .001 vs wild type", "result": "1.39 ± 0.29", "unit": "fold"}, {"measurement": "Glutamate efficacy", "setting": "[1]; in the presence of 30 μM glycine and 30 μM CNS4, n = 5 (4), p = .11 vs wild type", "result": "118.5 ± 40.87"}, {"measurement": "Difference in reversal potential (∆Erev) between W and WO CNS4", "setting": "GluN1/2D NMDA receptors; low Ca2+, Nafree, n = 6", "result": "−6.22 ± 4.08", "unit": "mV"}, {"measurement": "Difference in reversal potential (∆Erev) between W and WO CNS4", "setting": "GluN1/2D NMDA receptors; low Ca2+, with Na+, n = 7", "result": "−26.55 ± 7.66", "unit": "mV"}, {"measurement": "Difference in reversal potential (∆Erev) between W and WO CNS4", "setting": "GluN1/2D NMDA receptors; normal Ca2+, Nafree, n = 4", "result": "−2.21 ± 2.14", "unit": "mV"}, {"measurement": "Difference in reversal potential (∆Erev) between W and WO CNS4", "setting": "GluN1/2D NMDA receptors; normal Ca2+, with Na+, n = 4", "result": "−0.22 ± 2.08", "unit": "mV"}, {"measurement": "Reversal potential (Erev)", "setting": "GluN1/2D NMDA receptors; low Ca2+, with Na+, without CNS4 ‐44.02 ± 6.04, p = .013", "result": "−70.57 ± 6.44", "unit": "mV"}, {"measurement": "Reversal potential (Erev)", "setting": "GluN1/2D NMDA receptors; normal Ca2+, Nafree, without CNS4 −77.99 ± 1.77, p = .378", "result": "−80.20 ± 2.54", "unit": "mV"}, {"measurement": "Reversal potential (Erev)", "setting": "GluN1/2D NMDA receptors; normal Ca2+, with Na+, without CNS4 −61.43 ± 5.26, p = .919", "result": "−61.66 ± 5.55", "unit": "mV"}, {"measurement": "Glycine efficacy: relative fold change in current at highest glycine concentration", "setting": "GluN1/2B NMDA receptors; 100 μM glutamate constant, relative to 1 μM glycine, p = .0303", "result": "0.88 ± 0.07", "unit": "fold"}, {"measurement": "Glutamate efficacy: relative fold change in current at highest glutamate concentration", "setting": "GluN1/2B NMDA receptors; 100 μM glycine constant, relative to 1 μM glutamate, p = .5104", "result": "4.27 ± 0.82", "unit": "fold"}]}]}
